Test results: article PMC5627017 (Frontiers in Pharmacology, 2017)
Read-outs that look alike come from different tables or passages of the source.

Tests used:
[1] = system: H1R; design: method as in Slack et al., 2011a,b; details: ex vivo organ bath, antagonists continuously removed; ref Slack et al., 2011a,b; cited from earlier work
[2] = biological target: T1, H1R endogenously expressed in HeLa cells (Homo sapiens, UniProt P35367); assay: DMR receptor recovery after washout; details: 10x Ki pre-incubation, 1 h and 2 h after washout
Method: For the measurement of DMR in HeLa cells upon treatment by agonists and antagonists, a resonant waveguide grating (RWG) biosensor method was used.
HeLa cells were grown in DMEM High Glucose medium with L-Glutamine supplemented with 10% FBS and 1x penicillin/streptomycin [all reagents were obtained from Capricorn Scientific GmbH (Ebsdorfergrund, Germany)] and incubated in humidified atmosphere at 37°C and 5% CO2 in air.
As vehicle control wells with medium/DMSO treated cells were included. The LFC plate was incubated overnight in a humidified atmosphere at 37°C and 5% CO2 in air. On the next day assay buffer [HBSS (Sigma–Aldrich), 20 mM HEPES (Sigma–Aldrich), 0.5% (v/v) DMSO] was adapted to room temperature before use. 22–24 h after cell seeding antagonists were removed from the LFC plate and wells were washed four times with label-free assay buffer (25 μL/ well). The total assay volume after the washing step was 30 μL/ well.
In all experiments a DMSO concentration of 0.5% (v/v) was not exceeded. The LFC plate was placed in an EnSpire® Multimode Plate Reader equipped with Corning® Epic® Label-free technology.
Data was analyzed individually for each quadrant of the 384 well LFC plate using GraphPad Prism.
Depicted values represent mean and standard deviation of two independent experiments.

[3] = biological target: T1, H1R endogenously expressed in HeLa cells; assay: Receptor recovery of calcium mobilization after antagonist washout; type: cell-based; design: HeLa cells, endogenously expressing the H1R at low, but physiological relevant densities, were used in both assays; endogenous in cells; host or cells: HeLa cells (in-house cell biobank); details: for RecT (receptor recovery time), calcium mobilization: reciprocal of krec
Method: HeLa cells were cultured as described above. HeLa cells were lifted from a subconfluent dish by incubating with a 1x trypsin solution for 4 min. Cells were then seeded in a black, clear bottom 96-well plate, with 2 × 10^4 cells per well. Subsequently, the cells were pre-incubated overnight in culture medium with a range of antagonist concentrations or without antagonist, as is specified per assay format below. After 18–20 h, assay buffer was prepared by supplementing HBSS with 20 mM HEPES pH 7.4 and 2.5 mM probenecid (from a 2.5 × 10^-1 M stock in water). Dye solution was then prepared by dissolving one aliquot of Fluo4 NW in 22 mL assay buffer. Medium was aspirated and Fluo4 NW dye solution was supplemented to the cells and incubated for an hour at 37°C in the presence of the respective antagonist. After labeling the cells with Fluo4 NW, readout of the calcium response was measured per individual well in series.
One 96-well plate with HeLa cells was separated into four sections and each section was pre-incubated with a respective 10 times Ki concentrations of antihistamine or vehicle condition. […] Following Fluo4 NW loading in the presence of the respective concentration antihistamine, cells were washed and reconstituted in 100 μL assay buffer that was pre-heated to 37°C (t0). […] The first measurement was started approximately 2 min after washing the cells and subsequent wells were measured with 75 s intervals. […] The data was analyzed using non-linear regression with a one-phase association model in GraphPad Prism according to Eq. 3.
(3) Y=Y0+(Ymax−Y0)×(1−e^(−krec×t))
For all other antihistamines a free fit of Ymax was allowed, reported in the results as the steady-state recovery (%). Receptor recovery times (RecT) were calculated for each experiment as the reciprocal of the krec. Reported krec and RecT values are the mean ± SEM of ≥3 experiments.

[4] = biological target: T1, H1R endogenously expressed in HeLa cells
Method: (1) normalizedfluorescentresponse=FHA−Fb/Ft−Fb
The AUC was quantified using GraphPad Prism (GraphPad Software, San Diego, CA, United States). Settings were as such that peaks were ignored when there was less than 1% difference between min and max fluorescence and/or peaks shaped by fewer than 10 data points. The resulting dose-response curves were analyzed by non-linear regression according to Eq. 2.

[5] = system: H1R; design: method as in Gillard et al., 2002; Schoepke et al., 2013; details: ref Gillard et al., 2002; Schoepke et al., 2013; cited from earlier work
[6] = biological target: T1, H1R endogenously expressed in HeLa cells; remark: listed apart in the source
[7] = 10x Ki pre-incubation, washout, 37°C, mean ± SEM of ≥3

T1 sequence (P35367 whole entry): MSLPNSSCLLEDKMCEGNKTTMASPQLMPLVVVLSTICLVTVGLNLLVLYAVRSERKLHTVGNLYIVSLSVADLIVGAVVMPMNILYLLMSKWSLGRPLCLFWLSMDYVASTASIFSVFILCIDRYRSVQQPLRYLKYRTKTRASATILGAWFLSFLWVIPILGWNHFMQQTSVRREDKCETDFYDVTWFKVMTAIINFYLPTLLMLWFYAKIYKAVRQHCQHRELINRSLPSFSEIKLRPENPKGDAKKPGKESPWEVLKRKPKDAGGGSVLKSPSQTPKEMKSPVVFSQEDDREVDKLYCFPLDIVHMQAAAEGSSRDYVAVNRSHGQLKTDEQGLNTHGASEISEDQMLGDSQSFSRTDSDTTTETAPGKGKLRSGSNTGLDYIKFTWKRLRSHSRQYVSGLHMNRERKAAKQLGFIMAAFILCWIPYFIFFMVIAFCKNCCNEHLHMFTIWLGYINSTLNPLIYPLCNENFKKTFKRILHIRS

O=c1c2ccccc2c(Cc2ccc(Cl)cc2)nn1C[C@H]1CCCN1CCCCc1ccc(OCCCN2CCCCCC2)cc1 [GSK1004723]
inhibition of histamine-induced, H1R mediated bronchial contraction (in words) [1]: retained a long inhibition

O=C(O)COCCN1CCN([C@H](c2ccccc2)c2ccc(Cl)cc2)CC1 [Levocetirizine, levocetirizine]
insurmountable antagonism of histamine DMR response after washout (in words) [2]: pronounced | suppression of maximal histamine DMR response after washout (in words) [2]: suppressed the Emax up to 2 h | krec (recovery rate of histamine induced calcium mobilization) ([3]; 10x Ki overnight pre-incubation, washout, 10^-5 M histamine, 37°C, mean ± SEM of ≥3): 0.014 ± 0.003 min⁻¹ | recovery of histamine induced calcium mobilization after washout (in words) ([3]; 10x Ki pre-incubation, 10^-5 M histamine): even more delayed | Steady-state recovery (%) ([3]; fitted Ymax of histamine-induced calcium response after washout, relative to vehicle pre-treated cells): 104 ± 10% | RecT (receptor recovery time), calcium mobilization [3, 7]: 87 ± 20 min | antagonism of histamine-induced calcium mobilization after overnight pre-incubation (in words) ([4]; HeLa cells, increasing antagonist and histamine concentrations): full insurmountable inhibition | in vivo efficacy after depletion of free concentrations in the blood (in words) [5]: hysteresis of efficacy

CN(C)CC/C=C1/c2ccccc2COc2ccc(CC(=O)O)cc21 [Olopatadine, olopatadine]
insurmountable antagonism of histamine DMR response after washout (in words) [2]: pronounced | suppression of maximal histamine DMR response after washout (in words) [2]: suppressed the Emax up to 2 h | krec (recovery rate of histamine induced calcium mobilization) [3]: 0.006 ± 0.001 min⁻¹ | recovery of histamine induced calcium mobilization after washout (in words) [3]: even more delayed | RecT (receptor recovery time), calcium mobilization [3, 7]: 226 ± 60 min | antagonism of histamine-induced calcium mobilization after overnight pre-incubation (in words) [4]: full insurmountable inhibition

Cc1ccc(/C(=C\CN2CCCC2)c2ccccn2)cc1 [Triprolidine, triprolidine]
insurmountable antagonism of histamine DMR response after washout (in words) [2]: showed insurmountable antagonism, but this was the same at 1 and 2 h

CN1CCCC(n2nc(Cc3ccc(Cl)cc3)c3ccccc3c2=O)CC1 (centres unmarked) [azelastine]
inhibition of histamine-induced, H1R mediated bronchial contraction (in words) [1]: retained a long inhibition

NCCc1c[nH]cn1 [histamine]
Hill slope of histamine, DMR (AUC) ([6]; AUC): 0.88 | Hill slope of histamine, DMR (peak response) ([6]; peak response): 0.92 | Hill slope of histamine, calcium mobilization [4]: 1.1 ± 0.1
